Measurements taken from US20090186079A1, “Oral and overall health by negating the biological effects of bacterial lipids” (priority 2008, published 2009).

Legend:
Type in all cases: cell-based
[1] = system: Human primary gingival fibroblasts; test: Collagen coating of lipid-bearing surfaces, gingival fibroblast morphology
Method: Tissue culture flasks coated with bacterial lipids were used as a model of lipid-coated biological surfaces. Human primary gingival fibroblasts were maintained in 10 mm dishes in Minimun Essential Medium (GIBCO Cat #10370) 90% with 10% heat-inactivated FCS, penicillin (100 U/ml) and streptomycin ([…]). The cells were plated onto the 24-well tissue culture plate with individual wells treated as indicated below and grown at 37° C. in a humidified atmosphere of 5% CO2 in air.
Lipid coating: The HPLC-purified P. gingivalis phosphoglycerol dihydroceramide was dissolved in ethanol and added to the 24-well tissue culture plate (2 μg of lipid/well, 10.5 ng/mm^2). The solvent was allowed to evaporate in a laminar flow hood overnight leaving the lipid deposited on the culture well surface. Sham-coated control wells received only ethanol solvent.
Collagen coating: 0.5 mL of 50 μg/mL collagen dissolved in 0.02N Acetic acid was added to the 24-well tissue culture plate, and incubated at 4° C. overnight on a rocking platform. The collagen solution was aspirated, and the wells were washed with PBS.
The treatments were done in triplicate.

[2] = system: Human primary gingival fibroblasts; test: Detergent treatment of lipid-bearing surfaces, gingival fibroblast morphology; conditions: 0.1% detergent in PBS, 1 mL on PGDHC-coated wells, 4° C. overnight
Method: Tissue culture flasks coated with bacterial lipids were used as a model of lipid-coated biological surfaces. Human primary gingival fibroblasts were maintained in 10 mm dishes in Minimun Essential Medium (GIBCO Cat #10370) 90% with 10% heat-inactivated FCS, penicillin (100 U/ml) and streptomycin ([…]). The cells were plated onto the 6-well tissue culture plate with individual wells treated as indicated below and grown at 37° C. in a humidified atmosphere of 5% CO2 in air.
Lipid coating: The HPLC-purified P. gingivalis phosphoglycerol dihydroceramide (PGDHC) was dissolved in ethanol and added to the 6-well tissue culture plate (10 μg of lipid/well, 10.5 ng/mm^2). The solvent was allowed to evaporate in a laminar flow hood overnight leaving the lipid deposited on the culture well surface. Sham-coated control wells received only ethanol solvent.
Detergents: 3-[(3-Cholamidopropyl) dimethylammonio]-1-propanesulfonate (CHAPS), Sodium cholate (Cholate), and Tween-20 (Tween) were dissolved at the concentration of 0.1% in phosphate buffered saline (Gibco cat. 1490). 1 mL of freshly prepared […] was added to the wells coated with P. gingivalis phosphoglycerol dihydroceramide. 1 mL of PBS was added to phosphoglycerol dihydroceramide-coated well as a control. The plate was incubated at 4° C. overnight on a rocking platform.
Detergent treatment of uncoated wells had no effect on primary fibroblasts (data not shown).

[3] = system: peripheral blood monocytes; test: Morphological changes in peripheral blood monocytes on lipid-coated wells; conditions: treated with 1 μg/mL lipopolysaccharide, 26 hours
Method: Tissue culture flasks coated with bacterial lipids were used as a model of lipid-coated biological surfaces. The HPLC-purified P. gingivalis lipids were dissolved in ethanol and added to the tissue culture plate. The solvent was allowed to evaporate in a laminar flow hood overnight leaving the lipid deposited on the culture well surface. Sham-coated control wells received only ethanol solvent.
Peripheral blood monocytes were plated into 6-well culture dishes previously coated with the indicated lipid fractions (10 μg of lipid/well, 10.5 ng/mm^2) and were incubated for 26 hours. Culture (a) was the sham coating control, (b) was coated with the total lipid extract of P. gingivalis, (c) was coated with the P. gingivalis dihydroceramide fraction, (d) was coated with the phosphoethanolamine lipids and (e) was coated with the phosphoethanolamine dihydroceramide lipid fraction, (f) was treated with 1 μg/mL Salmonella typhimurium lipopolysaccharide.

Compound	negation of the biological effect of surface-deposited PGDHC [2]	further results
collagen		effect of coating alone on primary fibroblasts ([1]; 0.5 mL of 50 μg/mL collagen, wells without lipid): did not have any effect; blocking of the biological effect of surface-deposited phosphoglycerol dihydroceramide ([1]; collagen coated on top of PGDHC (2 μg of lipid/well, 10.5 ng/mm^2)): blocked the biological effect
C[C@H](CCC(=O)[O-])[C@H]1CC[C@H]2[C@@H]3[C@H](O)C[C@@H]4C[C@H](O)CC[C@]4(C)[C@H]3C[C@H](O)[C@]12C.[Na+] [sodium cholate, Sodium cholate]	negated the biological effect of bacterial lipid	
polyoxyethylene(20) sorbitan monolaurate [Tween-20]	negated the biological effect of bacterial lipid	
lipopolysaccharide		cell clustering of monocytes [3]: did not produce similar cell clustering
C[C@H](CCC(=O)NCCC[N+](C)(C)CCCS(=O)(=O)[O-])[C@H]1CC[C@H]2[C@@H]3[C@H](O)C[C@@H]4C[C@H](O)CC[C@]4(C)[C@H]3C[C@H](O)[C@]12C [CHAPS, 3-[(3-Cholamidopropyl)dimethylammonio]-1-propanesulfonate]	negated the biological effect of bacterial lipid	
